Results from PubChem BioAssay (NCI).
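Values below derive from 48-hour exposures of cells grown in 96-well plates, with endpoints linearly interpolated between the two concentrations bracketing the appropriate inhibition level. The concentration for 50% growth inhibition is given as GI50. TGI: total growth inhibition.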

Assays:
Experiment in all cases: NCI tumour cell line growth inhibition, 48 h
[1] = test system: BT-549 breast
[2] = test system: DU-145 prostate
[3] = test system: M14 melanoma
[4] = test system: MDA-MB-231 breast
[5] = test system: MDA-N
[6] = test system: T-47D breast
[7] = test system: DLD-1 colon
[8] = test system: DMS 273 small cell lung
[9] = test system: HOP-18 NSCLC
[10] = test system: KM20L2 colon
[11] = test system: M19-MEL melanoma
[12] = test system: P388 leukemia
[13] = test system: SN12K1 renal
[14] = test system: SNB-78 CNS
[15] = test system: XF 498 CNS

With `COc1cc2c(cc1OC)-c1cc3ccccc3c[n+]1CC2` the TGI [1] was > 100 µM, the TGI [2] was > 100 µM and the TGI [3] was > 100 µM. For the same compound, the TGI [4] was > 100 µM, the TGI [5] was > 100 µM and the TGI [6] was > 100 µM.
In the case of `CCOc1ccc2nc(-c3ccc(O)cc3)sc2c1`, the TGI [1] is reported as > 100 µM, the TGI [2] is reported as > 100 µM and the TGI [3] is reported as > 100 µM. For the same compound, the TGI [4] was > 100 µM and the TGI [5] was > 100 µM.
With `O=C(Nc1cccc(-n2ccc3c(NC(=O)c4ccccc4)nccc32)c1)c1ccc(N2CCOCC2)c(C(F)(F)F)c1` the GI50 [1] was 0.183 µM, the TGI [1] was > 67.7 µM and the GI50 [3] was 0.0386 µM. For the same compound, the TGI [3] was > 100 µM, the GI50 [4] was 0.127 µM and the TGI [4] was 3.42 µM.
Work on `CC1(C)CC23C4COC(=O)C2CCC1C3CC4=O` (stereo not drawn) yielded a TGI [7] of 42.6 µM, a TGI [8] of 71 µM and a TGI [9] of 5.11 µM. It also gave a TGI [10] of 54.6 µM, a TGI [11] of 40.7 µM and a TGI [12] of 111 µM. The TGI [13] was 48.2 µM, the TGI [14] was 73.4 µM and the TGI [15] was 27.2 µM.
`COC1=C2CC(C)CC(OC)C(O)C(C)/C=C(\C)C(OC(N)=O)C(OC)/C=C\C=C(/C)C(=O)NC(=C(C=NC(C)(C)C)C1=O)C2=O` (stereo not drawn) was tested, and the TGI [7] was 45.7 µM, the TGI [8] was 11.9 µM and the TGI [9] was 33.7 µM. The TGI [10] was 14.6 µM, the TGI [11] was 15.6 µM and the TGI [12] was 8.79 µM. For the same compound, the TGI [13] was 31.2 µM, the TGI [14] was 46.2 µM and the TGI [15] was 3.09 µM.
In the case of `O=C1OC[C@@H]2[C@@H](O)CCCCCN12`, the TGI [1] is reported as > 100 µM, the TGI [2] is reported as > 100 µM and the TGI [4] is reported as > 100 µM. The TGI [5] was > 100 µM and the TGI [6] was > 100 µM.
`N/C(=N\N=C/c1ccccc1O)NO` was tested, and the TGI [7] was > 45.6 µM, the TGI [8] was 28.7 µM and the TGI [9] was > 100 µM. For the same compound, the TGI [10] was > 100 µM, the TGI [11] was > 100 µM and the TGI [12] was 18.7 µM. The TGI [13] was > 100 µM, the TGI [14] was > 96.6 µM and the TGI [15] was 37.4 µM.
In the case of `Nc1ncnc2c1ncn2C1OC(COP(=O)(O)O)C(O)C1O` (stereo not drawn), the TGI [7] is reported as > 31.6 µM, the TGI [8] is reported as > 50 µM and the TGI [9] is reported as > 50 µM. The TGI [10] was > 50 µM, the TGI [11] was > 50 µM and the TGI [12] was > 37.3 µM. The TGI [13] was > 50 µM, the TGI [14] was > 50 µM and the TGI [15] was > 44.7 µM.
`CCOC(=O)NC(Nc1ncccn1)(C(F)(F)F)C(F)(F)F` was tested, and the TGI [1] was > 100 µM, the TGI [2] was > 100 µM and the TGI [3] was > 100 µM. For the same compound, the TGI [4] was > 100 µM, the TGI [5] was > 100 µM and the TGI [6] was > 100 µM.
With `CCS(=O)(=O)N1CCC(C(C)n2c(C)c(C(=O)NCc3c(OC)cc(C)[nH]c3=O)c3ccccc32)CC1` (stereo not drawn) the GI50 [2] was > 100 µM, the TGI [2] was > 100 µM and the GI50 [6] was > 100 µM. For the same compound, the TGI [6] was > 100 µM.
